PMC9866218, “Characterization and Chemical Synthesis of Cm39 (α-KTx 4.8): A Scorpion Toxin That Inhibits Voltage-Gated K^+ Channel KV1.2 and Small- and Intermediate-Conductance Ca^2+-Activated K^+ Channels KCa2.2 and KCa3.1” (Toxins, 2023)
“Also recorded” adds a separate entry of the source.

How the values were obtained:
hNaV1.5 = assay: Whole-cell patch-clamp, block of NaV1.5 current; type: cell-based, human; settings: CHO cells
Text: (§1) We, therefore, aimed at testing the pharmacological activity of sCm39 on a battery of various potassium and sodium ion channels. Among the tested channels were six members of human voltage-gated K^+ (hKV) channels from Shaker family, hKV1.1-hKV1.6 (Figure 3A–F) and three members of Ca^2+-activated potassium channel; hKCa2.2 (SK2, Figure 3I), the small-conductance Ca^2+-activated channel; hKCa3.1 (IKCa1, SK4. Figure 3J), the intermediate-conductance Ca^2+-activated channel expressed in T lymphocytes; and mKCa1.1 (BK, Slo1, MaxiK, Figure 3H), the large-conductance voltage- and Ca^2+-activated channel of mice. In addition, we also screened the effect of Cm39 on hKV11.1 (hERG1, Figure 3G), a voltage-gated cardiac K^+ channel, and two human voltage-gated sodium (hNaV) channels, hNaV1.4 (Figure 3K) and hNaV1.5 (Figure 3L), expressed in skeletal and cardiac muscles, respectively. These ion channels were heterologously expressed in the CHO or HEK cell lines except for KV1.3. Human peripheral T lymphocytes. They were stimulated with Phytohemagglutinin A (PHA) to increase the KV1.3 channel expression, and Ca^2+-free intracellular solution was used to avoid KCa3.1 channel activation. […]
(§2) Those plasmids which lack a fluorescent tag were co-transfected with a plasmid encoding GFP. […] Generally, currents were recorded 24 to 48 h post transfection. […]

hKV1.6 = type: cell-based, human; settings: CHO cells
Text: (§3) We, therefore, aimed at testing the pharmacological activity of sCm39 on a battery of various potassium and sodium ion channels. Among the tested channels were six members of human voltage-gated K^+ (hKV) channels from Shaker family, hKV1.1-hKV1.6 (Figure 3A–F) and three members of Ca^2+-activated potassium channel; hKCa2.2 (SK2, Figure 3I), the small-conductance Ca^2+-activated channel; hKCa3.1 (IKCa1, SK4. Figure 3J), the intermediate-conductance Ca^2+-activated channel expressed in T lymphocytes; and mKCa1.1 (BK, Slo1, MaxiK, Figure 3H), the large-conductance voltage- and Ca^2+-activated channel of mice. In addition, we also screened the effect of Cm39 on hKV11.1 (hERG1, Figure 3G), a voltage-gated cardiac K^+ channel, and two human voltage-gated sodium (hNaV) channels, hNaV1.4 (Figure 3K) and hNaV1.5 (Figure 3L), expressed in skeletal and cardiac muscles, respectively. These ion channels were heterologously expressed in the CHO or HEK cell lines except for KV1.3. Human peripheral T lymphocytes. They were stimulated with Phytohemagglutinin A (PHA) to increase the KV1.3 channel expression, and Ca^2+-free intracellular solution was used to avoid KCa3.1 channel activation. Appropriate depolarization protocols were used to record ionic currents in voltage-clamped cells (see Figure 3 insets and Material and Methods for details). Freshly dissolved sCm39 in extracellular solution was applied at 1 µM concentration on the cell using a custom-built micro-perfusion system at ~200 µL/min flow rate.
(§4) Chinese hamster ovary (CHO) cells (gift from Yosef Yarden, Weizmann Institute of Science, Rehovot, Israel) were maintained by culturing in Dulbecco’s modified Eagle medium (DMEM, Gibco) supplemented with 2 mM L-glutamine, 10% FBS, 100 µg/mL streptomycin and 100 U/mL penicillin-g (Sigma-Aldrich) at a density of 0. 5−1×10^6 cells per mL in a humidified incubator at 37 °C and 5% CO2. Cells were passaged 3 times in a week following a 2–5 min incubation in 0.05% trypsin-EDTA solution at 37 °C. Cultures were used up to passage number 20. PCR-based tests were routinely used to detect mycoplasma infection, only mycoplasma-free cultures were used for experiments.
(§5) Those plasmids which lack a fluorescent tag were co-transfected with a plasmid encoding GFP. Transfections were performed at a GFP:channel DNA molar ratio of 1:10 using the Lipofectamine 2000 kit (Invitrogen) according to the manufacturer’s protocol. […] Generally, currents were recorded 24 to 48 h post transfection.
(§6) For the measurement of KV1.x, mKCa1.1 and NaV1.x currents the extracellular solution was composed of (in mM) 145 NaCl, 5 KCl, 2.5 CaCl2, 1 MgCl2, 10 HEPES and 5.5 glucose, pH 7.35. In the HK-150 and Na^+-free bath solution bath all Na^+ was substituted by K^+ or Choline-Cl, respectively, other ingredients remained unchanged. In the various TEA^+-containing solutions, Na^+ was substituted by tetraethylammonium-Cl in equimolar concentration (Figure 3). The bath solution for KCa2.2 and KCa3.1 consisted of (in mM) 145 L-Aspartic Na^+ salt, 5 KCl, 2.5 CaCl2, 1 MgCl2, 5.5 glucose and 10 HEPES, pH 7.4 and for KV11.1 (in mM) 140 Choline-Cl, 5 KCl, 2 MgCl2, 2 CaCl2, 10 HEPES, 20 glucose and 0.1 CdCl2, pH 7.35. The osmolarity of bath solutions was ranging between 302 to 308 mOsm/L. A total of 0.1 mg/mL bovine serum albumin (BSA, Sigma-Aldrich, Budapest, Hungary) was added to all the bath solutions before the patch-clamp assay to avoid toxin adsorption to the plastic surfaces of the perfusion system. Internal or pipette solution for recording KV1.x and mKCa1.1 currents consisted of (in mM) 140 KF, 2 MgCl2, 1 CaCl2, 11 EGTA and 10 HEPES, pH 7.22.

hKV1.1 = type: cell-based, human; settings: CHO cells
Text: as §3, §4, §5, §6

hKCa2.2 = biological target: T1, hKCa2.2 (Homo sapiens, UniProt Q9H2S1); assay: Whole-cell patch-clamp, block of KCa2.2 current; type: cell-based
T1 construct: expressed in transfected cells; host or cells: CHO cells, transient transfection, co-transfected with a GFP plasmid
Text: as §3
The whole-cell K^+ currents of CHO cells transiently expressing KCa2.2 or KCa3.1 channels were recorded sequentially by applying the 150 ms long voltage ramp to +50 mV from Vh of −120 mV every 10 s in the presence of control solution or upon perfusing the cell with different concentrations of sCm39. Normalized peak currents were calculated and plotted as function of time as shown in Figure 5A for KCa2.2 and in Figure 5C for KCa3.1 in the presence of the toxin at various concentrations and upon wash-out. […] RCF values were determined at equilibrium block in the presence of various concentrations of sCm39 and fitted with the Hill equation (see Materials and Methods for details).
as §4, §5
For the measurement of KV1.x, mKCa1.1 and NaV1.x currents the extracellular solution was composed of (in mM) 145 NaCl, 5 KCl, 2.5 CaCl2, 1 MgCl2, 10 HEPES and 5.5 glucose, pH 7.35.

hKV1.4 = assay: Whole-cell patch-clamp, block of KV1.4 current; type: cell-based, human; settings: CHO cells
Text: as §1, §2

T1 sequence (Q9H2S1 whole entry): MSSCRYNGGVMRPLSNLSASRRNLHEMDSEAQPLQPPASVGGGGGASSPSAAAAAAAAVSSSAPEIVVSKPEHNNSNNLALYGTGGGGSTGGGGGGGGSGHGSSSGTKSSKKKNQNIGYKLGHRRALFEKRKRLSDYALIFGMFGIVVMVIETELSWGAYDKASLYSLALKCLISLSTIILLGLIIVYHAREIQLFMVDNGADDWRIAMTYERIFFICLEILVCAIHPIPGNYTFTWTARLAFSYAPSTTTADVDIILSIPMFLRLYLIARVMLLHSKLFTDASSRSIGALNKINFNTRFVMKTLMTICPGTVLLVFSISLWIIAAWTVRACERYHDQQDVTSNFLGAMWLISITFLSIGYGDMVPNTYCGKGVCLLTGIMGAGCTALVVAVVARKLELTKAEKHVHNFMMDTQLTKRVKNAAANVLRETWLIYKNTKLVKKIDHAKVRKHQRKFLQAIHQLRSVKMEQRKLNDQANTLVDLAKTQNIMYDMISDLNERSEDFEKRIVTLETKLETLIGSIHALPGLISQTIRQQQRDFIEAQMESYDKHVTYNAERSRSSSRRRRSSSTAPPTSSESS

CC[C@H](C)[C@@H]1NC(=O)[C@H](C)NC(=O)[C@H](C)NC(=O)[C@H](CCCCN)NC(=O)[C@@H]2CSSC[C@@H](C(=O)N[C@@H](Cc3ccc(O)cc3)C(=O)N[C@@H](Cc3ccc(O)cc3)C(=O)O)NC(=O)[C@H](CCCCN)NC(=O)[C@@H]3CSSC[C@H](NC(=O)[C@H](CCC(=O)O)NC(=O)[C@H](CO)NC(=O)[C@H](CO)NC(=O)[C@H](CO)NC(=O)[C@H](CCCCN)NC(=O)[C@@H](NC(=O)[C@H](CCCCN)NC(=O)[C@H](Cc4c[nH]cn4)NC(=O)[C@H](CC(N)=O)NC(=O)[C@@H](NC(=O)[C@H](Cc4ccccc4)NC(=O)[C@@H](N)[C@@H](C)O)[C@@H](C)CC)CSSC[C@H](NC(=O)[C@H](CCCCN)NC(=O)CNC(=O)[C@H](CO)NC(=O)[C@H](C)NC(=O)[C@H](CCCNC(=N)N)NC(=O)CNC1=O)C(=O)N[C@@H]([C@@H](C)CC)C(=O)N[C@@H](CC(N)=O)C(=O)N[C@@H](CO)C(=O)N[C@@H]([C@@H](C)O)C(=O)N3)C(=O)N[C@@H](CC(C)C)C(=O)N1CCC[C@H]1C(=O)N[C@@H](C)C(=O)N2 [Cm39]
inhibition (in words) (hNaV1.5; 1 μM): does not inhibit; also recorded: did not show any effect | decrease in current (hNaV1.5; 1 µM, 3−5 min, n = 3−5): < 3% | inhibition (in words) (hKV1.6; 1 μM): does not inhibit; also recorded: did not show any effect | decrease in current (hKV1.6; 1 µM, 3−5 min, n = 3−5): < 3% | inhibition (in words) (hKV1.1; 1 μM): does not inhibit; also recorded: did not show any effect | decrease in current (hKV1.1; 1 µM, 3−5 min, n = 3−5): < 3% | reduction of current at equilibrium block (hKCa2.2; 1 µM, CHO cells, current at +48 mV, n = 3−5 (Figure 3M)): 55% | toxin association and dissociation kinetics (hKCa2.2; CHO cells): fast | toxin association and dissociation kinetics (hKCa2.2; CHO cells, listed as sCm39): very fast | Hill coefficient (H) (hKCa2.2; concentration-response of KCa2.2 block, CHO cells): 0.7 | development and almost full recovery from equilibrium block (hKCa2.2; pulses separated by 10 s): 1–3 depolarization pulses | reversibility of KCa2.2 block (hKCa2.2; wash-out with toxin-free solution): fully reversible | inhibition (in words) (hKV1.4; 1 μM): does not inhibit; also recorded: did not show any effect | decrease in current (hKV1.4; 1 µM, 3−5 min, n = 3−5): < 3%
